The source of these data is patent US11311625B2, “Peptide-based multiple-drug delivery vehicle” (priority 2015, dated 2022).

The nature of series [1]: Chemo-stability and drug release of conjugates 1a-e in buffers at pH 2, 5 and 7.4 (LC-MS). It counts as physicochemical. The settings on record: for half-life at 0.4 mg/ml: buffer. How it is done:
Incubation procedure: Aqueous stability was determined at pH 2.0 (phosphate buffer), 5.0 (citrate buffer) and 7.4 (PBS buffer). 100 μl of the stock solutions were diluted to 2.5 ml with the desired buffer and then incubated at 37° C. During the incubation period (up to 200 hrs.), aliquots were removed at different time intervals, filtered and analyzed by LC-MS.
Chemo-stability. The chemo-stability tests of the conjugates were performed at three different pH values; a physiological pH of 7.4, the slightly acidic pH 5, mimicking the microenvironment in tumors, and the more acidic pH 2.
FIGS. 11A-11J present the results of the chemo-stability and drug release profiles assays, conducted for conjugates 1a-e at pH 2, 5 and 7.4. Degradation of 1a (FIG. 11A), 1b (FIG. 11C), 1c (FIG. 11E), 1d (FIG. 11G), 1e FIG. 11 (FIG. 11I), and the release of the corresponding drugs: CLB (FIG. 11B), CPT (FIG. 11D), AM (FIG. 11F), ABT-751 (FIG. 11H), and COMB (FIG. 11J). Stock solutions were prepared by dissolving 5 mg of the measured conjugate in 0.5 ml DMSO. 100 μl of the stock solution were diluted to 2.5 ml with the relevant buffer and then incubated at 37° C. Along the incubation period, aliquots were taken at the desired time points and analyzed by LC-MS.

Series [2] is described as follows: Bio-stability and drug release of conjugates 1a-e in murine liver homogenate (LH). It counts as in vitro ADME, mouse. The settings on record: for half-life: mouse, tissue homogenate, read-out: degradation t1/2 in liver homogenate. On the procedure:
Preparation of liver homogenate: Mice were sacrificed by CO2 inhalation euthanasia. The livers were removed, minced, washed three times in cold PBS buffer and homogenized in Tris-HCl buffer, pH 7.4 (wt/3 vol.) by dozen strokes in a Potter-Elvehjem glass tissue grinder. The tissue homogenate was centrifuged at 4° C., 14000 rpm, 20 min. The supernatant was carefully collected (liver homogenate) and used immediately or else stored in liquid nitrogen.
Incubation procedure: Incubations were conducted in a 37° C. incubator with 2 ml homogenate (equivalent to 6 mg total protein of mouse liver homogenate) per incubation tube. The samples were prepared by adding 50 μl of stock solution to the homogenate (homogenate mixture) at the beginning of the incubation period. Aliquots of the homogenate mixture were removed after 10, 30, 60, 90, 120 and 180 min and then immediately quenched with 2.5 volumes of ethanol. The samples were centrifuged at 14000 rpm for 15 min. Supernatants were collected, filtered and analyzed by LC-MS.
FIGS. 12A-12E present the results of the bio-stability and drug release profiles assays conducted for conjugates 1a-e in LH. […] Stock solutions were prepared by dissolving 5 mg of the measured conjugate in 0.5 ml DMSO. 50 μl of the stock solution were diluted with 2 ml of fresh mouse liver homogenate and then the mixture was incubated at 37° C. Aliquots were collected at 10, 30, 60, 90 and 120 min, mixed with 2.5 volumes of ethanol and centrifuged (14,000 rpm, 15 min). The supernatants were collected, filtered and analyzed by LC-MS

Series [3] deals with HCT 116, H1299, TRAMP C2 and HEK cell lines. Kind of series: XTT growth inhibition assay, statements over all tested cell lines. It counts as cell-based, human. The settings on record: for cytotoxicity throughout the study: 1-10 μM, 24 and 72 h; for IC50 values: tested cell lines including HEK. How it is done: (§1) The cytotoxicity of the peptide-drug conjugates was determined by measuring the mitochondrial enzyme activity, using a commercial XTT assay kit. All samples contained DMSO at final concentration <0.05%. Cells were cultured in micro wells at 2-4×10^4 cells/ml and incubated for 24 h or 72 h. After the first incubation period the cultures were washed and then given fresh medium containing different concentrations of the tested substances. At the end of the second incubation, XTT reagent was added and the cells were re-incubated for additional 2-4 h. During that time the absorbencies in the wells were measured with a TECAN Infinite M200 plate reader at both 480 and 680 nm. The difference between these measurements was used for calculating the % Growth Inhibition (GI) in test wells compared to two controls: cells that were exposed to the medium and solvent, and those that were exposed to a solvent-free medium. All the tests were done in quadruplicates. Each experiment was conducted twice.
(§2) In order to compare the cytotoxic effects of the conjugates relative to the free drugs, the in vitro cytotoxic effect of the drug bioconjugates 1a-e was determined on SSTR2 overexpressed HCT 116 human colorectal carcinoma, H1299 human non-small cell lung carcinoma and TRAMP C2 human prostate cancer cell lines. The SSTR2 low-expressed HEK-293 (Human Embryonic Kidney 293) cell line was used as a negative control. The study was elaborated over a concentration range of 1-10 μM.
FIGS. 13A-13D present the results of the XTT growth inhibition assay conducted for conjugates 1a-e. Growth inhibition effect of drug-conjugates versus free drugs was studied on three cell lines with an over-expression of SSTR2 (FIG. 13A. HCT 116; FIG. 13B. H1299; FIG. 13C. TRAMP C2) against the SSTR2 low expression cell line (FIG. 13D) HEK as negative control. All the cell lines were seeded and allowed to adhere in the wells, after which they were treated with the different compounds in increasing concentrations for 24 and 72 hr. After the treatment, growth inhibition was measured using the XTT assay: The culture medium was replaced by a new one, and then the XTT reagent was added. The wells were incubated for 2-4 hrs. after which the optical density (OD) was measured at 480 and 680 nm. Percentage of growth inhibition for each compound was calculated by comparison of the treated culture versus a control culture (free of any compound). The result shown for each concentration point represents the mean±standard error calculated from two different experiments. In each experiment the compounds were tested in quadruplicates.
In general terms: Tetrazolium assays rely on reduction of a dye to a coloured formazan, in cell work by metabolically active cells.

The nature of series [4]: Bio-stability of 9a in murine liver homogenate (LH). It counts as in vitro ADME, mouse. How it is done: Preparation of the LH and assay: Mice were sacrificed by CO2 inhalation euthanasia. The livers were removed, minced, washed three times in cold PBS buffer and homogenized in Tris-HCl, pH 7.4 buffer (wt/3 vol.) by dozen strokes in a Potter-Elvehjem glass tissue grinder. The tissue homogenate was centrifuged at 4° C., 14000 rpm, 20 min. The supernatant was carefully collected (LH) and used immediately or else stored in liquid nitrogen. The concentration of protein was measured using the BCA protein assay with bovine serum albumin as a standard.
Assay incubation procedure: Incubations were conducted in an incubator oven set at 37° C. Each incubation tube contained 2 mL homogenate samples (equivalent to 6 mg total protein of mouse LH). The samples were prepared by adding 50 μL of stock solution to the LH at the beginning of the incubation period. Aliquots (100 μL) of the LH mixture were removed after 10, 30, 60, 90, 120, and 180 min. immediately quenched with 2.5 volumes of ethanol, and centrifuged at 14000 rpm for 15 min. The supernatants were collected, filtered and analyzed by LC-MS.
In order to get a biologically relevant picture of the release sequence of the different drugs, the bio-stability of 9a in murine liver homogenate (LH) was studied. Examination of the degradation rate of 9a, accompanied by cleavage of free drugs, was carried out following the LC-MS trace at different time intervals using premade authentic samples as reference signals.

For series [5], the system named is H1299 human non-small cell lung carcinoma cells. Briefly: XTT growth inhibition assay, H1299. It counts as cell-based. Particulars: 10 μM, incubation of 72 h. How it is done:
as §1, §2
FIGS. 13A-13D present the results of the XTT growth inhibition assay conducted for conjugates 1a-e. […] After the treatment, growth inhibition was measured using the XTT assay: The culture medium was replaced by a new one, and then the XTT reagent was added. The wells were incubated for 2-4 hrs. after which the optical density (OD) was measured at 480 and 680 nm. Percentage of growth inhibition for each compound was calculated by comparison of the treated culture versus a control culture (free of any compound). The result shown for each concentration point represents the mean±standard error calculated from two different experiments. […]

Series [6] in a line: Chemo-stability and drug release of 9a and CLB in buffers at pH 2, 5 and 7.4 (LC-MS). It counts as physicochemical. How it is done: Stock solutions chemo-stability studies were prepared by dissolving 5 mg of the tested compound in 5000 μl of DMSO.
Incubation procedure: Aqueous stability was determined at pH 2, 5 and 7.4. Aliquots (100 μl) of stock solution were diluted to a total of 2.5 mL with the desired buffer and then incubated at 37° C. During the incubation period (up to 160 h) 250 μL portions were drawn at different time intervals, filtered and analyzed by LC-MS.
Peptidyl delivery systems loaded with anticancer drugs are expected to reach their site of action with minimal degradation. The PDS should be stable enough to be absorbed by cancer cells and only then deliver its toxic cargo. Chemo-stability and bio-stability studies may give us a background check for the endurance of our compact peptidyl DDS under the different conditions it is expected to encounter in a potential animal test. To that end, samples of 9a were incubated at pH 2, mimicking stomach conditions, at pH 5 mimicking the microenvironment in tumors, and at physiological pH 7.4, all at 37° C. Aliquots from the stock solutions were extracted at different time intervals and analyzed by LC-MS following the decrease in concentration of 9a (i.e., chemical degradation) and the formation of the dihydroxy derivative 11. In addition, the direct release of the different drugs was also followed based on the increase in the concentration of CLB, AZA and CAMP over time. In this analysis samples of 9a, 11, CLB, AZA and CAMP were used as references. Overall, the HPLC trace presents a very complex mixture of metabolites which could not be exhaustively characterized. Scheme 9 below presented the molecular structure 11.

Take `C[C@@H](O)[C@@H]1NC(=O)[C@H](CCCCN)NC(=O)[C@@H](Cc2c[nH]c3ccccc23)NC(=O)[C@H](Cc2c[nH]c3ccccc23)NC(=O)[C@H](Cc2ccccc2)NC(=O)[C@@H](NC(=O)[C@@H](Cc2ccccc2)NC(=O)CCCNC(=O)CCCc2ccc(N(CCCl)CCCl)cc2)CSSCCN(CC(N)=O)C(=O)[C@H](Cc2ccccc2)NC1=O` [conjugate 1a]: the degradation of conjugate entry in series [1] (all tested pH values (pH 2, 5, 7.4), 37° C.) is “considerable degradation”. For the same molecule, the “CLB release from conjugate” value in series [1] (pH 2, 5 and 7.4, 37° C.) is reported as “observed only at acidic pH 2”. For the same molecule, the half-life in series [1] (pH 2, 37° C., read-out: CLB release t1/2 (converted)) is 51 h; in series [2] (37° C.), 0.95 h. The “cytotoxicity throughout the study” value in series [3] was “poorly active”.

On to `COc1cc([C@@H]2c3[nH]c4ccccc4c3C[C@H]3COC(=O)N32)cc(OC)c1OC(=O)N[C@@H](C)C(=O)O` [compound 12], for which, in series [4], the “time the carbamate link remains intact in LH” value is “at least 120 min”.

On to `C[C@@H](O)[C@@H]1NC(=O)[C@H](CCCCN)NC(=O)[C@@H](Cc2c[nH]c3ccccc23)NC(=O)[C@H](Cc2c[nH]c3ccccc23)NC(=O)[C@H](Cc2ccccc2)NC(=O)[C@@H](NC(=O)[C@@H](Cc2ccccc2)NC(=O)CCCNC(=O)CCCC(=O)Nc2cc3c4c(cccc4c2)C(=O)N(CCN(C)C)C3=O)CSSCCN(CC(N)=O)C(=O)[C@H](Cc2ccccc2)NC1=O` [conjugate 1c], for which the figures for the half-life at 0.4 mg/ml in series [1] (pH 2), in series [1] (pH 5) and in series [1] (pH 7.4) were 48 h, 28 h and 103 h, respectively.

With `CN(C)CCN1C(=O)c2cccc3cc(N)cc(c23)C1=O` [amonafide, reference compound], in series [1] (acidic pH 2), the “stability of free drug” value is reported as “relatively low stability”. The “cytotoxicity throughout the study” value in series [3] was “poorly active”.

In the case of `COc1ccc(S(=O)(=O)Nc2cccnc2Nc2ccc(O)cc2)cc1` [ABT-751, reference compound], the “degradation of free drug” value in series [1] (buffers, 37° C.) is “certain degradation behavior”. The “cytotoxic effect on H1299” value in series [5] is recorded as “considerable cytotoxic effect”. In series [2] (measured time period), the “stability of free drug in liver homogenate” value was “rapid degradation”. Besides, the IC50 values result in series [3] is reported as “low μM range”.

On to `CC[C@]1(OC(=O)NCCCC[C@H](NC(=O)CCCc2ccc(N(CCO)CCO)cc2)C(=O)NCCCC[C@H](NC(=O)Oc2c(OC)cc([C@H]3c4[nH]c5ccccc5c4CC4COC(=O)N43)cc2OC)C(=O)O)C(=O)OCc2c1cc1n(c2=O)Cc2cc3ccccc3nc2-1` (stereo partly drawn) [compound 11], for which, in series [6] (all three pH cases), the “time after which no traces of 11 are left” value came to 40 h and the “time at which formation of 11 from 9a reaches its maximum” value was found to be 5 h.

For the molecule `O=C(O)CCCc1ccc(N(CCCl)CCCl)cc1` [CLB, Chlorambucil, reference compound], in series [6] (all tested pH values (2, 5, 7.4), 37° C.), the “degradation of pure CLB” value is on record as “considerable degradation”. Moreover, the “relative stability of CLB” value in series [6] (pH 5) is on record as “least stable”. The “cytotoxicity throughout the study” value in series [3] is “poorly active”.

For `COc1ccc(/C=C\c2cc(OC)c(OC)c(OC)c2)cc1O` [COMB, combretastatin A4], in series [3], the IC50 values entry is reported as “low μM range”.

As to `CC[C@@]1(OC(=O)NCCCC(=O)N[C@H](Cc2ccccc2)C(=O)N[C@H]2CSSCCN(CC(N)=O)C(=O)[C@H](Cc3ccccc3)NC(=O)[C@H]([C@@H](C)O)NC(=O)[C@H](CCCCN)NC(=O)[C@@H](Cc3c[nH]c4ccccc34)NC(=O)[C@H](Cc3c[nH]c4ccccc34)NC(=O)[C@H](Cc3ccccc3)NC2=O)C(=O)OCc2c1cc1n(c2=O)Cc2cc3ccccc3nc2-1` [conjugate 1b], the “cytotoxic effect on H1299” value in series [5] is reported as “most active”. Also, the half-life in series [2] (pH 7.4, 37° C.) turned out to be 0.617 h. In addition, in series [3], the “cytotoxicity throughout the study” value is listed as “targeted but cell selective cytotoxicity”.
